Experimental data from paper PMC8230863 (The Journal of Venomous Animals and Toxins Including …, 2021).
Bridge positions count the residues as written; N and C are the ends. Peptide text beside a SMILES is read from it.

What was measured:
Format in all cases: cell-based
[1] = system: sodium channel currents in rat DRG neurons; details: 10 μM; n = 3
human Cav2.2 = details: 10 μM; SD
[2] = system: potassium channel currents in rat DRG neurons; details: 10 μM
[3] = system: calcium channel currents in rat DRG neurons

For `CSCC[C@@H]1NC(=O)[C@H](CCC(N)=O)NC(=O)[C@@H]2CSSC[C@@H](C(=O)N3CCC[C@H]3C(N)=O)NC(=O)[C@@H]3CSSC[C@H](NC(=O)[C@@H](NC(=O)CNC(=O)[C@@H](N)CCC(N)=O)CSSC[C@H](NC(=O)[C@H](C)NC(=O)[C@H](C)NC1=O)C(=O)N[C@@H](CC(N)=O)C(=O)N1CCC[C@H]1C(=O)N1CCC[C@H]1C(=O)N1CCC[C@H]1C(=O)N3)C(=O)N1CCC[C@H]1C(=O)N1CCC[C@H]1C(=O)NCC(=O)N[C@@H](C(C)C)C(=O)N2` [Vr3a] (H-QGCCPPGVCQMAACNPPPCCP-NH2; disulfide 3-14, 4-19, 9-20), the “effect on the peak of the sodium currents” value [1] was “no effects”, the “shift in the activation curve of sodium channels (change of V50)” value [1] was ~ 10 mV and the “shift in the current-voltage relationship of sodium channels” value [1] was ~ 10 mV. For the same compound, the “shift in the inactivation curve of sodium channels (change of V50)” value [1] was ~ 5 mV, the “shift in the recovery curve, delaying sodium channel recovery” value [1] was ~ 0.002 second and the “inhibition of human Cav2.2 currents” value (human Cav2.2) was 12.86% ± 4.93%. The “increase of the peak potassium currents” value ([2]; SD) was 19.61 ± 5.12%, the “shift in the current-voltage relationship of potassium channels” value ([2]; n = 3) was “do not induce a shift” and the “inhibition of the peak calcium currents” value ([3]; 10 μM, SD) was 31.26% ± 4.53%. The “shift in the current-voltage relationship of calcium channels” value ([3]; 10 μM, n = 3) was “do not induce a shift” and the IC50 ([3]; SD) was 19.3 ± 4.32 µM.
